# According to patent publication US7625945B2, “Andrographolide and analogues as inhibitors of TNFα and IL-1β expression” (Hutchison MediPharma Enterprises Ltd., priority 2004, dated 2009):
# Tested on: DNBS-induced colitis
# Assay: In vivo assay: DNBS-induced distal colitis in rats
# Parameters: species or system Male Wistar rats
# Conditions: DNBS-treated rats, 10 mg/kg i.p.
# Experimental: Male Wistar rats (170-190 g, provided by Chinese academy of science animal center, Shanghai) were housed (7˜8 rats per cage) in a controlled environment and fed with standard rodent chow and water. Distal colitis was induced to the rats according to the procedure described in Hogaboam C. M., European Journal of Pharmacology, 1996, 309: 261-269. Briefly, the rats were anaesthetized with 1% pentobarbital sodium. 2,4-Dinitrobenzene sulfonic acid (DNBS) in 0.25 ml of 30% ethanol (v/v) was introduced into the colon (8 cm proximal to the anus) via a PE 50 cannula. In the control group (blank-control), 30% ethanol (v/v), in stead of DNBS in ethanol, was introduced. Andrographolide (10 mg/kg, i.p.) was administered to a group of DNBS-treated rats 24 hours and 2 hours prior to the colitis induction and once daily thereafter for 5 days. The rats were weighed daily. All rats were sacrificed 6 days after the colitis induction, and colon, spleen, and thymus were removed and weighed. The colon weight/body weight ratio, spleen weight/body weight ratio, and thymus weight/body weight ratio were calculated. Samples of colon tissues located precisely 2 cm above the anal canal were obtained, fixed in 10% neutral-buffered formalin, embedded in paraffin, sectioned, and stained with hematoxylin/eosin. The samples were examined under microscope to determine severity of the lesions.
compound,measurement,setting,value
C=C1CC[C@@H]2[C@](C)(CO)[C@H](O)CC[C@@]2(C)[C@@H]1C/C=C1/C(=O)OC[C@H]1O [andrographolide],overall effect on DNBS-induced colitis,,effectively alleviated or even cured
same,microscopic examination of colon: severity of inflammation,"colon sections hematoxylin/eosin, 6 days after induction",much less severe inflammation
same,colon weight/body weight ratio,treatment for 6 days,decreased
same,"wasting syndrome (weight loss, diarrhea)",treatment for 6 days,alleviated wasting syndrome
